The structures appear in SMILES notation.

What is called pKa is the negative logarithm of the acid dissociation constant. The term solubility denotes the dissolved amount per volume that the medium holds. A lower solubility goes with a poorly soluble substance.

One series addresses T1, human plasma kallikrein (Homo sapiens, UniProt P03952).
T1 construct: purchased Enzyme Research Laboratories, South Bend, IN, USA
Description: Plasma kallikrein activity, chromogenic substrate S2302. In kind it is biochemical. The procedure:
The effect of compounds of the disclosure on human plasma kallikrein activity is determined by the method described in Zhang et al. (Medicinal Chemistry, 2006, No. 6, p 547). Briefly, plasma kallikrein activity is determined using a chromogenic substrate (S2302). In these experiments, 2 nM plasma kallikrein (Enzyme Research Laboratories, South Bend, IN, USA) is incubated with 80 μM S2302 (H-D-Pro-Phe-Arg-p-nitroaniline) in the absence or presence of increasing concentrations of compounds of the disclosure in a final volume of 200 μL Tris-HCI buffer (200 mM NaCl; 2.5 mM CaCl2; 50 mM Tris-HCl, pH 7.8). Assay reactions were initiated by adding enzyme into pre-mixed solution of inhibitors and substrate (enzyme initiated reaction) After incubation at 30° C., the activity of plasma kallikrein is measured as a change in absorbance at OD 405 nm (for example using a BioTek PowerWave X340 Microplate Reader, Winooski, VT, USA or equivalent device). Data are analyzed using appropriate software (for example, Four Parameter Logistic Curve, SigmaPlot software, Systat Software, Inc., San Jose, CA, USA or equivalent).

The nature of series [1]: Partition coefficient (octanol-phosphate buffer). It counts as physicochemical. As to conditions: pH 7.4.
A short description of series [2]: Ocular PK (tissue drug levels) after SCS injection. In kind it is in vivo, Dutch belted rabbits. The procedure:
(§1) Dutch belted rabbits were used in the study.
(§2) 100 μL of the suspension was administered bilaterally to the suprachoroidal space of the eye, at a dose of 0.5 mg/eye. Two rabbits (4 eyes) were treated per time point, except at day 28, when 3 rabbits were treated. Plasma was collected at 3 hours, 1 day, 3 days, 7 days, 10 days, 14 days, 21 days, 28 days, 56 days, and 84 days post-dose. Aqueous humor, vitreous humor, peripheral retina, peripheral sclera/choroid/RPE, central retina, and central sclera/choroid/RPE punch punch tissues were collected at 1 day, 7 days, 14 days, 28 days, 56 days and 84 days post-dose. Ocular examinations and intraocular pressure (IOP) were also assessed, anterior and posterior segments, at 1 day, 7 days, 14 days, 28 days, 56 days, and 84 days post-dose. Redness, chemosis, discharge, opacity, aqueous flare, cellular flare, vitreous flare, retinal vasculature, retinal and choroidal pathology were assessed at those time points.

Series [3] is described as follows: Systemic (plasma) PK after SCS injection. It counts as in vivo, Dutch belted rabbits. As to conditions: SCS 0.5 mg/eye, FIG. 5. As for the experimental part: as §1, §2
A further series is described as follows: pKa by UV-metric method. It counts as physicochemical. As to conditions: read-out: pKa Values (second value).
The nature of series [4]: Aqueous solubility (deionized water). It counts as physicochemical. The following applies: room temperature.
The subject of another series is Dutch belted rabbits. Description: Ocular tolerability after suprachoroidal (SCS) injection. In kind it is in vivo. The procedure: as §1, §2

T1 sequence (P03952 391-638 limits assumed): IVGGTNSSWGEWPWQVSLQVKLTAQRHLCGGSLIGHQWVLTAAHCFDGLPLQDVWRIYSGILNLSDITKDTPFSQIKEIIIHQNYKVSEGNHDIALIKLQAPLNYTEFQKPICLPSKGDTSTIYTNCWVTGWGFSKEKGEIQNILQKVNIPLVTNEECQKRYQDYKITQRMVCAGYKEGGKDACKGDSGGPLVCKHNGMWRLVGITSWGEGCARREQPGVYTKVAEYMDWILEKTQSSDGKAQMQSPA
T1 sequence (P03952 20-390 partner limits assumed): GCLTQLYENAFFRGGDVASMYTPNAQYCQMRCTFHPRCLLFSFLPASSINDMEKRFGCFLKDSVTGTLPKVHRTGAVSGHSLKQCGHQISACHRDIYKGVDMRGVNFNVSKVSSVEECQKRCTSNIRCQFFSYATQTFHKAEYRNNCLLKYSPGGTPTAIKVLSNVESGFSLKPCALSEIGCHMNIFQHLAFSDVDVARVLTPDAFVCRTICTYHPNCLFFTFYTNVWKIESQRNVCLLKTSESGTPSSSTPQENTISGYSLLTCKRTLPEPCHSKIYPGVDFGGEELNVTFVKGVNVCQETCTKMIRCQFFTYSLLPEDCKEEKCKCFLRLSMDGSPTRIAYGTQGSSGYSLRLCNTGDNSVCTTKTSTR

Take `C=Cc1cc(C(=O)Nc2ccc(C(=N)N)cc2)c(-c2ccc(C(=O)NCC3CC3)nc2C(=O)O)cc1OC.Cl` [BCX4161, avoralstat]: at human plasma kallikrein, the “inhibition of human plasma kallikrein activity (in words)” value is “potent and highly specific inhibitor”. For the same compound, in series [1], the “Partition Coefficient (octanol-phosphate buffer), log D7.4” value is recorded as “log D7.4 = 1.9”. Further, in series [2] (0.5% suspension, single SCS injection), the “duration of highly favorable PK profile” value was “at least 3 months”. Besides, in series [2] (SCS 0.5 mg/eye, FIG. 1), the “drug levels in central and peripheral RPE/choroid/sclera” value is recorded as “High drug levels”. Further, the “drug levels in central and peripheral retina” value in series [2] (SCS 0.5 mg/eye, FIG. 2) is reported as “High levels”. The “drug levels in the aqueous humor” value in series [2] (SCS 0.5 mg/eye, FIG. 4C) is reported as “low levels”. Besides, in series [2] (SCS 0.5 mg/eye, FIGS. 4A and 4B), the “drug levels in the vitreous humor” value is recorded as “moderate to low levels”. In addition, in series [2] (after SCS injection 0.5 mg/eye), the “time high drug levels present in central and peripheral RPE/choroid/sclera” value is no less than 84 days; the “time high drug levels present in central and peripheral retina” value was no less than 84 days. In addition, in series [3], the systemic exposure entry is on record as “minimal to no systemic exposure”. Besides, the pKa in the series “pKa by UV-metric method” was 11.4. The solubility in series [4] was in the range of 20 to 40 µg/mL. Further, the tolerability result with Dutch belted rabbits (0.5% suspension, single SCS injection, 0.5 mg/eye) is recorded as “well tolerated”. Also, the ocular exam score in the series with Dutch belted rabbits (all observations, SCS 0.5 mg/eye) was 0. The “conjunctival redness and chemosis” value with Dutch belted rabbits (day 1 post-dose, SCS 0.5 mg/eye) was “Mild”. The adverse events result in the series on Dutch belted rabbits (days 7, 14, 28, 56, or 84 post-dose, SCS 0.5 mg/eye) is “No adverse events”.
